Laboratory results as given in patent publication US12661410B2, “Compounds for targeted degradation of RET” (C4 Therapeutics, Inc., priority 2020, dated 2026).
Where a chain is given by its changes, count along the chain named. Read-outs that look alike come from different tables or passages of the source.

Legend:
RET(KD: 658-1114 G810R) = molecular target: T1, RET(KD: 658-1114 G810R) (Homo sapiens, UniProt P07949, G810R); experiment: HiBiT-Degradation, RET G810R degradation assay (Nano-Glo HiBiT Lytic), 293T.165 cells; format: cell-based; details: for Emax / DC50: 6.0 hours
T1 construct: 658-1114; expressed in transfected cells; host or cells: 293T.165 (293T cells, generated in-house)
T1 sequence (P07949 658-1114 G810R): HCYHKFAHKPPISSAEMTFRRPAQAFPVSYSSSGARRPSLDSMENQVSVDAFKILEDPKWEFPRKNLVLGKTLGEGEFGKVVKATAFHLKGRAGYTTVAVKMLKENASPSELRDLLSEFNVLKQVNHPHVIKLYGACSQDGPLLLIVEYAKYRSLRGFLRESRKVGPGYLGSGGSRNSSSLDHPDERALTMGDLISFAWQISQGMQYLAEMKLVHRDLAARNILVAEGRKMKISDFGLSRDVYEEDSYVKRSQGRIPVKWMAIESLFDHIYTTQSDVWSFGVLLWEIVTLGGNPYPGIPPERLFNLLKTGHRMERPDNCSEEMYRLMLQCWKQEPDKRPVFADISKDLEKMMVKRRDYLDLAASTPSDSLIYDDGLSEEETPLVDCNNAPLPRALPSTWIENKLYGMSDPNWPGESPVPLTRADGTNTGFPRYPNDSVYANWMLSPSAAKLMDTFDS
Outline: (§1)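 HEK293T lines stably expressing HiBiT-tagged RET kinase domain (WT: 293T.144; G810R: 293T.165) were treated with degraders for 6 h in duplicate, 11-point half-log series from 10 μM top dose. Lysis with Nano-Glo HiBiT Lytic reagent, luminescence read; DC50 and Emax (% remaining protein) derived from dose-response curves.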

RET (658-1114) = molecular target: T2, RET (658-1114) (Homo sapiens, UniProt P07949); experiment: HiBiT-Degradation, RET wild-type degradation assay (Nano-Glo HiBiT Lytic), 293T.144 cells; format: cell-based; details: for DC50 / Emax: 6.0 hours
T2 construct: 658-1114; expressed in transfected cells; host or cells: 293T.144 (293T cells, generated in-house)
T2 sequence (P07949 658-1114): T1 sequence (P07949 658-1114 G810R) with R153G
Outline: as §1

[1] = % remaining protein, read-out: 293T.165 RET(KD: 658-1114 G810R) 6.0 hours (Emax)
[2] = half-maximal degradation concentration, read-out: 293T.165 RET(KD: 658-1114 G810R) 6.0 hours (DC50)
[3] = RET G810R, read-out: HiBiT-Degradation 293T.165 RET(KD: 658-1114 G810R) 6.0 hours (DC50)
[4] = RET G810R, read-out: HiBiT-Degradation 293T.165 RET(KD: 658-1114 G810R) 6.0 hours (Emax)
[5] = RET wild-type, read-out: HiBiT-Degradation 293T.144 RET (658-1114) 6.0 hours (DC50)
[6] = RET wild-type, read-out: HiBiT-Degradation 293T.144 RET (658-1114) 6.0 hours (Emax)
[7] = HiBiT-Degradation, read-out: 293T.165 RET(KD: 658-1114 G810R) 6.0 hours (DC50)
[8] = HiBiT-Degradation, read-out: 293T.144 RET (658-1114) 6.0 hours (DC50)
[9] = HiBiT-Degradation, read-out: 293T.144 RET (658-1114) 6.0 hours (Emax)
[10] = % remaining protein, read-out: 293T.144 RET (658-1114) 6.0 hours (Emax)
[11] = half-maximal degradation concentration, read-out: 293T.144 RET (658-1114) 6.0 hours (DC50)

Row | SMILES | Emax (RET(KD: 658-1114 G810R); [1]) | DC50 (RET(KD: 658-1114 G810R); [2]) | HiBiT-Degradation 293T.165 RET(KD: 658-1114 G810R) 6.0 hours (IP) [nM] (RET(KD: 658-1114 G810R); RET G810R) | DC50 (RET(KD: 658-1114 G810R); [3]) | Emax (RET(KD: 658-1114 G810R); [4]) | HiBiT-Degradation 293T.144 RET (658-1114) 6.0 hours (IP) [nM] (RET (658-1114); RET wild-type) | DC50 (RET (658-1114); [5]) | Emax (RET (658-1114); [6]) | 293T.165 RET(KD: 658-1114 G810R) 6.0 hours (Emax) (RET(KD: 658-1114 G810R); HiBiT-Degradation) | 293T.165 RET(KD: 658-1114 G810R) 6.0 hours (IP) [nM] (RET(KD: 658-1114 G810R); HiBiT-Degradation) | DC50 (RET(KD: 658-1114 G810R); [7]) | 293T.144 RET (658-1114) 6.0 hours (IP) [nM] (RET (658-1114); HiBiT-Degradation) | DC50 (RET (658-1114); [8]) | Emax (RET (658-1114); [9]) | 293T.165 RET(KD: 658-1114 G810R) 6.0 hours (IP) [nM] (RET(KD: 658-1114 G810R)) | 293T.144 RET (658-1114) 6.0 hours (IP) [nM] (RET (658-1114)) | Emax (RET (658-1114); [10]) | DC50 (RET (658-1114); [11])
1 | N#Cc1cnn2cc(-c3ccc(N4CCN(C(=O)CN5CCC(c6ccc(NC7CCC(=O)NC7=O)cc6)CC5)CC4)cc3)cc(-c3ccc(N4CCN(C(=O)Cc5ccc(F)cn5)CC4)nc3)c12 (stereo not drawn) [Compound 74, 6-[4-[4-[2-[4-[4-[(2,6-dioxo-3-piperidyl)amino]phenyl]-1-piperidyl]acetyl]piperazin-1-yl]phenyl]-4-[6-[4-[2-(5-fluoro-2-pyridyl)acetyl]piperazin-1-yl]-3-pyridyl]pyrazolo[1,5-a]pyridine-3-carbonitrile] | < 30% | < 50 nM | ++++ (< 50 nM = ++++) | < 50 nM | < 30% | ++++ (< 50 nM = ++++) | < 50 nM | < 30% | – | – | – | – | – | – | – | – | – | –
2 | N#Cc1cnn2cc(-c3ccc(N4CCN(C(=O)CN5CCC(c6ccc(NC7CCC(=O)NC7=O)cc6)CC5)CC4)cc3)cc(-c3ccc(N4CC5CC5C4)nc3)c12 (stereo not drawn) [Compound 17, 4-[6-(3-azabicyclo[3.1.0]hexan-3-yl)-3-pyridyl]-6-[4-[4-[2-[4-[4-[(2,6-dioxo-3-piperidyl)amino]phenyl]-1-piperidyl]acetyl]piperazin-1-yl]phenyl]pyrazolo[1,5-a]pyridine-3-carbonitrile] | < 30% | < 50 nM | – | – | – | – | – | – | ++++ (< 30% = ++++) | ++++ (< 50 nM = ++++) | < 50 nM | ++++ (< 50 nM = ++++) | < 50 nM | < 30% | – | – | – | –
3 | CC(C)NC(=O)C1(C)CCN(c2ccc(-c3cc(-c4cnn([C@H]5CC[C@H](CCN6CCC(c7ccc(NC8CCC(=O)NC8=O)cc7F)CC6)CC5)c4)cn4ncc(C#N)c34)cn2)CC1 (stereo partly drawn) [Compound 34, 1-(5-(3-Cyano-6-(1-((1r,4r)-4-(2-(4-(4-((2,6-dioxopiperidin-3-yl)amino)-2-fluorophenyl)piperidin-1-yl)ethyl)cyclohexyl)-1H-pyrazol-4-yl)pyrazolo[1,5-a]pyridin-4-yl)pyridin-2-yl)-N-isopropyl-4-methylpiperidine-4-carboxamide] | < 30% | < 50 nM | – | – | – | – | – | – | ++++ (< 30% = ++++) | ++++ (< 50 nM = ++++) | < 50 nM | ++++ (< 50 nM = ++++) | < 50 nM | < 30% | – | – | – | –
4 | N#Cc1cnn2cc(-c3cnn(C4CCN(C(=O)CN5CCC(c6ccc(NC7CCC(=O)NC7=O)cc6F)CC5)CC4)c3)nc(-c3ccc(N4CCC(Cc5ccccn5)CC4)nc3)c12 (stereo not drawn) [Compound 72, 6-[1-[1-[2-[4-[4-[(2,6-dioxo-3-piperidyl)amino]-2-fluoro-phenyl]-1-piperidyl]acetyl]-4-piperidyl]pyrazol-4-yl]-4-[6-[4-(2-pyridylmethyl)-1-piperidyl]-3-pyridyl]pyrazolo[1,5-a]pyrazine-3-carbonitrile] | < 50% | < 50 nM | ++++ (< 50 nM = ++++) | < 50 nM | < 50% | ++++ (< 50 nM = ++++) | < 50 nM | < 30% | – | – | – | – | – | – | – | – | – | –
5 | N#Cc1cnn2cc(-c3cnn([C@H]4CC[C@H](CCN5CCC(c6ccc(NC7CCC(=O)NC7=O)cc6F)CC5)CC4)c3)cc(-c3ccc(N4CCN(C(=O)Cc5ccc(F)cn5)CC4)nc3)c12 (stereo partly drawn) [Compound 57, 6-[1-[(1r,4r)-4-[2-[4-[4-[(2,6-dioxo-3-piperidyl)amino]-2-fluoro-phenyl]-1-piperidyl]ethyl]cyclohexyl]pyrazol-4-yl]-4-[6-[4-[2-(5-fluoro-2-pyridyl)acetyl]piperazin-1-yl]-3-pyridyl]pyrazolo[1,5-a]pyridine-3-carbonitrile] | < 30% | < 50 nM | – | – | – | – | – | – | ++++ (< 30% = ++++) | ++++ (< 50 nM = ++++) | < 50 nM | ++++ (< 50 nM = ++++) | < 50 nM | < 30% | – | – | – | –
6 | CC1(NC(=O)Cc2ccccc2)CCN(c2ccc(-c3cc(-c4ccc(N5CCN(C(=O)CN6CCC(c7ccc(NC8CCC(=O)NC8=O)cc7F)CC6)CC5)cc4)cn4ncc(C#N)c34)cn2)CC1 (stereo not drawn) [Compound 23, N-(1-(5-(3-Cyano-6-(4-(4-(2-(4-(4-((2,6-dioxopiperidin-3-yl)amino)-2-fluorophenyl)piperidin-1-yl)acetyl)piperazin-1-yl)phenyl)pyrazolo[1,5-a]pyridin-4-yl)pyridin-2-yl)-4-methylpiperidin-4-yl)-2-phenylacetamide] | < 30% | < 100 nM | – | – | – | – | – | – | ++++ (< 30% = ++++) | +++ (<100 nM = +++) | < 100 nM | ++++ (< 50 nM = ++++) | < 50 nM | < 30% | – | – | – | –
7 | N#Cc1cnn2cc(-c3cnn([C@H]4CC[C@H](N5CCC(c6ccc(N[C@@H]7CCC(=O)NC7=O)cc6F)CC5)CC4)c3)nc(-c3ccc(N4CCC5(CC4)OCc4cccnc45)nc3)c12 (single isomer, unassigned) [Compound 180] | < 30% | < 50 nM | – | – | – | – | – | – | – | – | – | – | – | – | ++++ (<50 nM = ++++) | ++++ (<50 nM = ++++) | < 30% | < 50 nM
8 | N#Cc1cnn2cc(-c3cnn([C@H]4CC[C@H](N5CCN(c6c(F)cc(NC7CCC(=O)NC7=O)cc6F)CC5)CC4)c3)nc(-c3ccc(N4CC[C@H](OCc5ccccn5)C4)nc3)c12 (mixture of isomers) [Compound 211, 6-[1-[4-[4-[4-[(2,6-dioxo-3-piperidyl)amino]-2,6-difluoro-phenyl]piperazin-1-yl]cyclohexyl]pyrazol-4-yl]-4-[6-[rac-(3S)-3-(2-pyridylmethoxy)pyrrolidin-1-yl]-3-pyridyl]pyrazolo[1,5-a]pyrazine-3-carbonitrile] | < 30% | < 50 nM | – | – | – | – | – | – | – | – | – | – | – | – | ++++ (<50 nM = ++++) | ++++ (<50 nM = ++++) | < 30% | < 50 nM
9 | N#Cc1cnn2cc(-c3cnn([C@H]4CC[C@H](N5CCN(c6cc(F)c(NC7CCC(=O)NC7=O)cc6F)CC5)CC4)c3)nc(-c3ccc(N4CC5COCC(C4)N5Cc4ccccn4)nc3)c12 (relative stereo) [Compound 161, 6-[1-[4-[4-[4-[(2,6-dioxo-3-piperidyl)amino]-2,5-difluoro-phenyl]piperazin-1-yl]cyclohexyl]pyrazol-4-yl]-4-[6-[9-(2-pyridylmethyl)-3-oxa-7,9-diazabicyclo[3.3.1]nonan-7-yl]-3-pyridyl]pyrazolo[1,5-a]pyrazine-3-carbonitrile] | < 30% | < 50 nM | – | – | – | – | – | – | – | – | – | – | – | – | ++++ (<50 nM = ++++) | ++++ (<50 nM = ++++) | < 30% | < 50 nM
